“Also recorded” adds a separate entry of the source. Like-named read-outs stand apart in the source and are kept apart here.

The nature of series [1]: Stability of ligands in 0.1 M PBS (UV/Vis concentration). The series is classed as physicochemical. The note with it: for conc.: storage 3,5 h (EC), 22 h (CAT), 15 h (PC B1, PC B2, PC C1); for difference rt and 277 K: same storage times. The procedure:
Flavan-3-ols were dissolved in 0.1 M phosphate buffer containing 0.04 M NaCl at pH 7. Final concentrations were determined by UV/Vis spectroscopy at 298 K (quartz glass cuvette, light path 10 mm, Hellma Analytics, SPECTROstar Nano, BMG Labtech) using the following absorption coefficients ε at 280 nm: CAT, 3340 [L/mol cm]; EC, 3470 [L/mol cm]; PC B1, 6800 [L/mol cm]; […] PC C1, 10,000 [L/mol cm] according to Kaeswurm et al.[33] All ligand solutions were stored at 253 K. The data analysis for the interaction studies was conducted using software NanoAnalyze, with manual integration of the peaks. To correct the data for noninteraction-related heats, the mean heat released during the final three injections was subtracted as a constant blank. This procedure is an effective estimation strategy that minimizes errors during the fitting process, provided that the protein is fully saturated.[35] The data were fitted using the “independent” model. To prevent overparametrization, n was set to 1, while Ka and ΔH were maintained as variables, as recommended for low-affinity binding.[35],[36] The stability of the ligand at room temperature was ensured by monitoring the concentrations prior to and following the experiment (S5).

In series [2] the target is T1, porcine pancreatic α-amylase (Sus scrofa, UniProt P00690).
T1 sequence (P00690 16-511): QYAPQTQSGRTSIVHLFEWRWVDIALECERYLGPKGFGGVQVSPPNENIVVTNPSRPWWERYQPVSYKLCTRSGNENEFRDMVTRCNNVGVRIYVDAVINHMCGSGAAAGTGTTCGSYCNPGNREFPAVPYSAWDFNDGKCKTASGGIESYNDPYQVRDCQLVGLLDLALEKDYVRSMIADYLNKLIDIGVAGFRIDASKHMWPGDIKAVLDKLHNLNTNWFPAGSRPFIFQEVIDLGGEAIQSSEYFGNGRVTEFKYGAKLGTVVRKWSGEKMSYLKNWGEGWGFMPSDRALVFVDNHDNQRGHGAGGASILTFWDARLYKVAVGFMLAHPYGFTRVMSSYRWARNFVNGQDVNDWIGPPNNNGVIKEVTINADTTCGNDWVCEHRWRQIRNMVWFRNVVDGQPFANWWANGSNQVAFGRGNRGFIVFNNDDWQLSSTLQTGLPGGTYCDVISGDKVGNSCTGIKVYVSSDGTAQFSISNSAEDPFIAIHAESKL
The experiment in a line: Saturation transfer difference (STD)-NMR interaction study. The format is binding. The note with it: for saturation protein–ligand aliph., corrected by a blank / saturation protein–ligand arom., corrected by a blank / saturation aliph. / saturation arom.: 10 μM α-amylase, 1 mM ligand, 298 K; for saturation protein–ligand arom., corrected by a blank: catechol ring protons; for saturation aliph. / saturation arom.: head prints 'blank', values are protein–ligand not corrected by a blank; for ratio aliph.: share of aliphatic proton saturation; for ratio arom.: share of aromatic proton saturation. From the text:
STD-NMR parameters were optimized based on the Bruker standard pulse sequence stddiffgp19.3 using a protein and ligand blank sample. The irradiation frequency (FQ2), saturation time (D20), saturation pulse selectivity (SPW9), and power of the saturation pulse (P42) were varied to achieve maximum selective protein saturation (S2). The best saturation of the α-amylase, with 60%, was obtained with FQ2 = 0.5 ppm, D20 = 3 s, SPW9 = 35 dB, and P42 = 50 ms. The pseudo-2D experiment allows simultaneous acquisition of the on-resonance spectrum (with selective protein saturation) and the off-resonance spectrum (without protein saturation). The subtraction of both FIDs yields the STD-NMR spectrum (S3). The off-resonance spectrum serves as a reference spectrum for the determination of ligand saturation by intensity comparison with the STD-NMR spectrum. The protein blank sample contained 10 μM α-amylase, and the ligand blank was acquired with 1.1 mM flavan-3-ol in 0.1 M phosphate buffer/0.04 M NaCl (D2O/H2O, 90/10, v/v). Interaction studies were performed with 10 μM α-amylase and 1 mM (ligand). The software package TopSpin 3.2 of Bruker BioSpin was used for data acquisition and processing.

Series [3] deals with α-amylase. More on the design: method as in PMID 28618113. The note with it: α-amylase concentration of 20 μM in the sample cell; cited from earlier work.
Series [4] concerns α-amylase. More on the design: method as in PMID 21495725. The settings on record: cited from earlier work.
The test system of series [5] is α-amylase. More on the design: method as in PMID 27132823. The note with it: cited from earlier work.
In series [6] the target is α-amylase. Details: method as in PMID 31496243. The settings on record: substrate Gal-G2-CNP, UV-based, cited from earlier work.
Series [7] has as its target T1, porcine pancreatic α-amylase. The experiment in a line: CD spectroscopy, change in secondary structure of α-amylase. The settings on record: for impact on the secondary structure of α-amylase: 90 μM α-amylase, 600 μM flavan-3-ol; for α-helix / β-turn / β-sheet / random coil: α-amylase + polyphenol, 90 µM α-amylase, 600 µM polyphenol; for α-helix: α-amylase alone 8; for β-turn: α-amylase alone 12; for β-sheet: α-amylase alone 32; for random coil: α-amylase alone 48. The procedure:
CD spectra were recorded in the range of 240–190 nm with a bandwidth of 1 nm on a Jasco J-815 CD spectrometer equipped with a Peltier unit from Jasco PTC-4238 and a temperature control (F250, Julabo). For CD experiments, 20 μL respective dilutions of the stock solutions for α-amylase, EC, and PC B2 or mixtures of α-amylase and flavan-3-ol, obtained from the ITC cell after interactions experiments (see Section 2.7; 90 μM α-amylase and 600 μM EC/PC B2), were diluted with 60 μL of 0.2 M KCl and filled bubble-free into a cuvette with a light path of 0.1 mm (Hellma Analytics). At 273 K, 40 independent spectra were accumulated in a continuous scanning mode and a speed of 100 nm/min without baseline correction. Data analysis was performed in Excel according to Kaeswurm et al.[34]

With `Oc1cc(O)c2c(c1)O[C@H](c1ccc(O)c(O)c1)[C@@H](O)C2` [CAT, (+)-Catechin], the conc. in series [1] (277 K) is 3,94 ± 0,24 mM. The conc. in series [1] (room temperature (rt)) was 4,02 ± 0,21 mM. Besides, the “difference rt and 277 K” value in series [1] was 0,08 mM. Further, in series [2], the “saturation protein–ligand aliph., corrected by a blank” value was 3%; the “saturation protein–ligand arom., corrected by a blank” value was determined as 11%; the saturation aliph. was found to be 5%; the saturation arom. is on record as 13%. In addition, in series [2], the ratio aliph. is recorded as 21 and the ratio arom. is listed as 79.

For `Oc1cc(O)c2c(c1)O[C@H](c1ccc(O)c(O)c1)[C@H](O)C2` [EC, (−)-Epicatechin], the “binding to α-amylase by ITC” value in series [3] was “weak binder”. Moreover, in series [4], the “reduction / decrease in α-amylase activity” value is 10%. Also, the “inhibition of α-amylase compared to other phenolic compounds and the apple extract” value in series [5] is listed as “weakest inhibition”. Besides, in series [1] (277 K), the conc. was 3,99 ± 0,25 mM. In series [1] (room temperature (rt)), the conc. is listed as 4,23 ± 0,24 mM. In series [1], the “difference rt and 277 K” value was 0,24 mM. Further, in series [2], the “saturation protein–ligand aliph., corrected by a blank” value is 6%; the “saturation protein–ligand arom., corrected by a blank” value is reported as 21%; the saturation aliph. is recorded as 6%; the saturation arom. is recorded as 21%. Besides, in series [2], the ratio aliph. is listed as 21 and the ratio arom. was 79. Besides, the Ki in series [6] (read-out: Kic) is 88 ± 37 µM. For the same molecule, the Ki in series [6] (read-out: Kiu) was 231 ± 45 µM. Besides, in series [7], the “impact on the secondary structure of α-amylase” value is “No significant impact; also recorded: did not induce significant changes”, the α-helix was determined as 14%, the β-turn was found to be 15% and the β-sheet stood at 23%. Besides, the random coil in series [7] was found to be 48%.

With `Oc1cc(O)c2c(c1)O[C@H](c1ccc(O)c(O)c1)[C@H](O)[C@H]2c1c(O)cc(O)c2c1O[C@H](c1ccc(O)c(O)c1)[C@@H](O)C2` [PC B1, procyanidin B1], in series [1] (277 K), the conc. is on record as 4,28 ± 0,20 mM. The conc. in series [1] (room temperature (rt)) is on record as 4,10 ± 0,29 mM. For the same molecule, the “difference rt and 277 K” value in series [1] is 0,18 mM. In series [2], the “saturation protein–ligand aliph., corrected by a blank” value came out at 11%; the “saturation protein–ligand arom., corrected by a blank” value was determined as 14%; the saturation aliph. was determined as 11%; the saturation arom. amounted to 14%. Besides, in series [2], the ratio aliph. is recorded as 44 and the ratio arom. was determined as 56.

Consider `Oc1cc(O)c2c(c1)O[C@H](c1ccc(O)c(O)c1)[C@H](O)[C@H]2c1c(O)cc(O)c2c1O[C@H](c1ccc(O)c(O)c1)[C@H](O)C2` [PC B2, procyanidin B2], for which the conc. in series [1] (277 K) is recorded as 4,46 ± 0,24 mM. Besides, in series [1] (room temperature (rt)), the conc. is 4,56 ± 0,21 mM. In addition, in series [1], the “difference rt and 277 K” value was 0,11 mM. Moreover, in series [2], the “saturation protein–ligand aliph., corrected by a blank” value was determined as 6%; the “saturation protein–ligand arom., corrected by a blank” value came out at 9%; the saturation aliph. was 6%; the saturation arom. worked out at 9%. Further, in series [2], the ratio aliph. stood at 40 and the ratio arom. is listed as 60. In series [7], the “impact on the secondary structure of α-amylase” value is given as “No significant impact; also recorded: did not induce significant changes”, the α-helix worked out at 14%, the β-turn is on record as 15% and the β-sheet was 23%. For the same molecule, the random coil in series [7] was found to be 48%.

For `Oc1cc(O)c2c(c1)O[C@H](c1ccc(O)c(O)c1)[C@H](O)[C@H]2c1c(O)cc(O)c2c1O[C@H](c1ccc(O)c(O)c1)[C@H](O)[C@H]2c1c(O)cc(O)c2c1O[C@H](c1ccc(O)c(O)c1)[C@H](O)C2` [PC C1, procyanidin C1], in series [1] (277 K), the conc. was 4,60 ± 0,42 mM. Also, in series [1] (room temperature (rt)), the conc. is reported as 4,29 ± 0,30 mM. Also, the “difference rt and 277 K” value in series [1] is 0,31 mM. Further, in series [2], the “observation in the STD-NMR sample with α-amylase” value is recorded as “visible precipitation”; the “saturation protein–ligand aliph., corrected by a blank” value was 7%; the “saturation protein–ligand arom., corrected by a blank” value is 11%; the saturation aliph. worked out at 7%. Besides, in series [2], the saturation arom. is reported as 11%, the ratio aliph. worked out at 39 and the ratio arom. amounted to 61. Besides, the “PC C1 concentration in solution after precipitation” value in series [2] (after STD experiment, 1 mM PC C1, 10 μM α-amylase) was 0.35 mM. Also, the “decrease of PC C1 in solution after precipitation” value in series [2] (integrals of aromatic protons, off-resonance spectrum vs pure ligand blank, 1 mM PC C1, 10 μM α-amylase) is “roughly 65%”.

The record behind these values is paper PMC12007089, “Applying Isothermal Titration Calorimetry and Saturation Transfer Difference-NMR to Study the Mode of Interaction of Flavan-3-ols with α-Amylase to Understand Their Impact on Starch Hydrolysis” (Journal of Agricultural and Food Chemistry, 2025).
